Assay results as given in ChEMBL document CHEMBL5346940, “Design, synthesis and biological evaluation of dual Topo II/HDAC inhibitors bearing pyrimido[5,4-b]indole and pyrazolo[3,4-d]pyrimidine motifs” (Eur J Med Chem, 2023).
Activity calls are given as the source filed them. No cut-off for these calls is given here.

Columns and labels:
MGC-803 = assay: Antiproliferative activity against human MGC-803 cells assessed as reduction in cell viability measured for 48 hrs by MTT assay; type: functional, cell-based; conditions: MGC-803, 48 h
MCF7 [1] = assay: Antiproliferative activity against human MCF7 cells assessed as reduction in cell viability measured for 48 hrs by MTT assay; type: functional, cell-based; conditions: MCF7, 48 h
U-937 = assay: Antiproliferative activity against human U-937 cells assessed as reduction in cell viability measured for 48 hrs by MTT assay; type: functional, cell-based; conditions: U-937, 48 h
NIH3T3 = assay: Antiproliferative activity against mouse 3T3 cells assessed as reduction in cell viability at 100 uM measured for 48 hrs by MTT assay relative to control; type: toxicity, cell-based; conditions: nih3t3, 48 h
[2] = biological target: T1, DNA topoisomerase 1 (Homo sapiens) (UniProt P11387); assay: Inhibition of human topoisomerase 1 assessed as relaxation of pBR322 plasmid DNA at 100 uM measured after 30 mins by agarose gel electrophoresis analysis
T1 sequence (whole entry): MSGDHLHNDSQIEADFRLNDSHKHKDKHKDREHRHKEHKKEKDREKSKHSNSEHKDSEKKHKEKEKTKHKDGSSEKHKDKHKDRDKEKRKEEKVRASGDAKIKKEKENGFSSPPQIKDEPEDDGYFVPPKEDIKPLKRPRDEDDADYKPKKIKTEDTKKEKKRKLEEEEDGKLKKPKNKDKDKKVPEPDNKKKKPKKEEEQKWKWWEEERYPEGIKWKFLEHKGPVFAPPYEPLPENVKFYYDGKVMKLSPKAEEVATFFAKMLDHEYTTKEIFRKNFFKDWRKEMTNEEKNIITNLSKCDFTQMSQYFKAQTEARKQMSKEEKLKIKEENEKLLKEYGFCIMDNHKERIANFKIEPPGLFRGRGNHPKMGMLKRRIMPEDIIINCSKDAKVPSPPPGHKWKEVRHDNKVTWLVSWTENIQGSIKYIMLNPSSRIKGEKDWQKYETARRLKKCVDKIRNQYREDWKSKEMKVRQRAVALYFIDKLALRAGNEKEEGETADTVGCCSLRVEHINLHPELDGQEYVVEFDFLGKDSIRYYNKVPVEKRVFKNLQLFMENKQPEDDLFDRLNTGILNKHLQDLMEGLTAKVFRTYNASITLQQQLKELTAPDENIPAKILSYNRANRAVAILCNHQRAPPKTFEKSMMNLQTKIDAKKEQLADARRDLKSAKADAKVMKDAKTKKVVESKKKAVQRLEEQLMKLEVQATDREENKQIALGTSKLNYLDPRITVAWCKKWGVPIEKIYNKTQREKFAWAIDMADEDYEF

Histone deacetylase = assay: Inhibition of HDAC in human HeLa nuclear extract measured after 30 mins by fluorescence based assay; type: cell-free
[3] = biological target: DNA topoisomerase 2-alpha (Homo sapiens) (UniProt P11388); assay: Inhibition of human topoisomerase 2 assessed as relaxation of pBR322 plasmid DNA at 100 uM measured after 30 mins by ethidium bromide staining based UV transilluminator analysis
Chain of DNA topoisomerase 2-alpha (Homo sapiens) (P11388 whole entry): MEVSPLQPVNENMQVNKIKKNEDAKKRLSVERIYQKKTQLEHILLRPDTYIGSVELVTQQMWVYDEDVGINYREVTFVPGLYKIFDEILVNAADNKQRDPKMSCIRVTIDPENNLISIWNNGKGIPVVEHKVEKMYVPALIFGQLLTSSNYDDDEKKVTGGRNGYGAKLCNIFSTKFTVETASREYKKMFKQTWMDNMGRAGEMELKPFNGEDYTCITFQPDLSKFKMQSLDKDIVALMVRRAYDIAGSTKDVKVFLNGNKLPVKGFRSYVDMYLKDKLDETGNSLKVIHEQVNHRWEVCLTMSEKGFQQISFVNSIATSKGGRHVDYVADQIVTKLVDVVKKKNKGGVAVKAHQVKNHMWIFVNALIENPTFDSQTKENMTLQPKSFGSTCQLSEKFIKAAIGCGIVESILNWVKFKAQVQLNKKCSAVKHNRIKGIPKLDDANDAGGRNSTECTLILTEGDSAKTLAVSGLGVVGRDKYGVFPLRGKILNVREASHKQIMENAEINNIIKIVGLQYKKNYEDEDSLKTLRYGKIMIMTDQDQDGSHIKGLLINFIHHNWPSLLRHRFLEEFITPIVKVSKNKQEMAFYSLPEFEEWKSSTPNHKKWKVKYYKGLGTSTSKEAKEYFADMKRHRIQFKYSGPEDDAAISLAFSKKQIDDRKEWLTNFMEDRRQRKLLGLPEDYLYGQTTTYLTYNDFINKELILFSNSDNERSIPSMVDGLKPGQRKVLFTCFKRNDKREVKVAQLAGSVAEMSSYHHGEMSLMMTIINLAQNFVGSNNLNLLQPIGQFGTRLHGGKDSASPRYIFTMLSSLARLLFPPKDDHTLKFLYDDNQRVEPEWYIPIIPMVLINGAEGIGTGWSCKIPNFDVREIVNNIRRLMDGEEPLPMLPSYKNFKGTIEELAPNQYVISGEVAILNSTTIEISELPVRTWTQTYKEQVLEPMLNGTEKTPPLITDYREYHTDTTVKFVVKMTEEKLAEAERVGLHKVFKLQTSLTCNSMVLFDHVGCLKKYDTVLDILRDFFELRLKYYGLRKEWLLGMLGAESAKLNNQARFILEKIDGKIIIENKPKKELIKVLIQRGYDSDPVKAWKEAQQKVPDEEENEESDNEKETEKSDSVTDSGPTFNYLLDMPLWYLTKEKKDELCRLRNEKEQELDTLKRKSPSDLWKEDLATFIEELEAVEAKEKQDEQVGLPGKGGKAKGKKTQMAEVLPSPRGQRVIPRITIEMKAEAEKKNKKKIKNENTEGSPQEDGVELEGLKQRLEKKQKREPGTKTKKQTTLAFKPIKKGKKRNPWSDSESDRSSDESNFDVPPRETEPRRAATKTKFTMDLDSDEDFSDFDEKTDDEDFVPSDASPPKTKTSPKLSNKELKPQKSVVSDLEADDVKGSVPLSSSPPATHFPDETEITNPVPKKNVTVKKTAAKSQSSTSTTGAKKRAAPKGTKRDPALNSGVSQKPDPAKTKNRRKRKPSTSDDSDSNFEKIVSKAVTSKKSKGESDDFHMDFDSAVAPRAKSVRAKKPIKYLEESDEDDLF

MCF7 [4] = assay: Induction of apoptosis in human MCF7 cells assessed as viable cells at 10 uM incubated for 48 hrs by AnnexinV-FITC/propidium iodide staining based flow cytometry analysis (reference value: 99.2 %); type: functional; conditions: read-out: Activity
MCF7 [5] = assay: Induction of apoptosis in human MCF7 cells assessed as early apoptotic cells at 10 uM incubated for 48 hrs by AnnexinV-FITC/propidium iodide staining based flow cytometry analysis (reference value: 0.28 %); type: functional
MCF7 [6] = assay: Induction of apoptosis in human MCF7 cells assessed as late apoptotic cells at 10 uM incubated for 48 hrs by AnnexinV-FITC/propidium iodide staining based flow cytometry analysis (reference value: 0.015 %); type: functional
MCF7 [7] = assay: Induction of apoptosis in human MCF7 cells assessed as necrotic cells at 10 uM incubated for 48 hrs by AnnexinV-FITC/propidium iodide staining based flow cytometry analysis (reference value: 0.55 %); type: functional
[8] = biological target: DNA topoisomerase 2-alpha (Homo sapiens) (UniProt P11388); assay: Poison activity at human topoisomerase 2 assessed as stabilization of enzyme-DNA cleavage complex by measuring linear DNA formation at 100 uM incubated for 6 mins by EtBr staining based UV light analysis
MCF7 [9] = assay: cells; type: functional; conditions: Homo sapiens, time 48 hrs
Description: Inhibition of cell migration in human MCF7 cells assessed as reduction in cell migration at 1 uM measured for 48 hrs by wound healing assay based microscopic analysis (Rvb = 70.25%)

MCF7 [10] = assay: cells; type: functional; conditions: Homo sapiens, time 48 hrs; remark: listed apart in the source
Description: Inhibition of cell migration in human MCF7 cells assessed as reduction in cell migration at 2.5 uM measured for 48 hrs by wound healing assay based microscopic analysis (Rvb = 70.25%)

SMILES | IC50 (MGC-803) [µM] | IC50 (MCF7 [1]) [µM] | IC50 (U-937) [µM] | inhibition (active/inactive call) [2] | IC50 (Histone deacetylase) [µM] | topoisomerase II inhibition (active/inactive) [3] | Activity (NIH3T3) [%] | viability at 10 µM (MCF7 [4]) [%] | Activity (MCF7 [5]) [%] | Activity (MCF7 [6]) [%] | Activity (MCF7 [7]) [%] | Activity [8] | inhibition at 1 µM (MCF7 [9]) [%] | inhibition at 2.5 µM (MCF7 [10]) [%]
CC[C@@]1(O)C(=O)OCc2c1cc1n(c2=O)Cc2cc3ccccc3nc2-1 [CAMPTOTHECIN] | 17.8 | 18.6 | 18.2 |  |  |  | 37.51 |  |  |  |  |  |  | 
CCn1c(SCCCCCCC(=O)NO)nc2c([nH]c3ccccc32)c1=O | 46.4 | 34.6 | 21.8 | Active |  |  | 61.71 |  |  |  |  |  |  | 
O=C(CCCCCSc1nc2c([nH]c3ccccc32)c(=O)[nH]1)NO | 27.6 | 28.6 | 34.8 | Active | 2.58 | Active | 65.7 |  |  |  |  |  |  | 
O=C(CCCSc1nc2c([nH]c3ccccc32)c(=O)[nH]1)NO | 34.1 | 41.4 | 54.2 | Active |  | Active | 38.06 |  |  |  |  |  |  | 
CCn1c(SCCCCCC(=O)NO)nc2c([nH]c3ccccc32)c1=O | 26 | 25.7 | 19.6 | Active |  |  | 43.13 |  |  |  |  |  |  | 
CCn1c(SCCCCCCCC(=O)NO)nc2c([nH]c3ccccc32)c1=O | 36.4 | 19.6 | 25.1 | Active |  |  | 43.12 |  |  |  |  |  |  | 
O=C(CSc1nc2c([nH]c3ccccc32)c(=O)[nH]1)NO | > 80 | > 80 | 26.7 | Active |  | Active | 38.47 |  |  |  |  |  |  | 
CCn1c(SCC(=O)NO)nc2c([nH]c3ccccc32)c1=O | 31.3 | 41.2 | 15 | Active |  |  | 45.5 |  |  |  |  |  |  | 
CCn1c(SCCC(=O)NO)nc2c([nH]c3ccccc32)c1=O | 43.5 | 42.7 | 18.2 | Active |  |  | 53.79 |  |  |  |  |  |  | 
C/C(=N\O)c1ccc(NC(=O)CSc2nc3c([nH]c4ccccc43)c(=O)[nH]2)cc1 | 33.3 | > 80 | 37.2 | Active |  | Active | 18.72 |  |  |  |  |  |  | 
C/C(=N\O)c1ccc(NC(=O)CSc2nc3[nH]ncc3c(=O)[nH]2)cc1 | 42.5 | 46.4 | 31.2 | Active |  |  | 41.36 |  |  |  |  |  |  | 
C/C(=N/O)c1ccc(NC(=O)CCCSc2nc3[nH]ncc3c(=O)[nH]2)cc1 | 36.6 | 36.4 | 44.7 | Active |  |  | 38.02 |  |  |  |  |  |  | 
O=C(CSc1nc2[nH]ncc2c(=O)[nH]1)NO | 31.2 | > 80 | 23.5 | Active |  | Active | 41.42 |  |  |  |  |  |  | 
O=C(CCCSc1nc2[nH]ncc2c(=O)[nH]1)NO | 27.5 | 20.4 | 21.7 | Active |  |  | 32.15 |  |  |  |  |  |  | 
O=C(CCCCCSc1nc2[nH]ncc2c(=O)[nH]1)NO | 25.8 | 15.5 | 21.6 | Active |  | Active | 20.31 |  |  |  |  |  |  | 
O=C(CCCCSc1nc2[nH]ncc2c(=O)[nH]1)NO | 40 | 18.9 | 19.5 | Active |  | Active | 24.26 |  |  |  |  |  |  | 
CCn1c(SCC(=O)Nc2ccc(/C(C)=N/O)cc2)nc2c([nH]c3ccccc32)c1=O | 48.4 | 37.2 | 30.3 | Active |  | Active | 21.56 |  |  |  |  |  |  | 

More lines, in order of falling IC50 (MGC-803), values ahead:

IC50 (MGC-803) [µM] | IC50 (MCF7 [1]) [µM] | IC50 (U-937) [µM] | inhibition (active/inactive call) [2] | IC50 (Histone deacetylase) [µM] | topoisomerase II inhibition (active/inactive) [3] | SMILES | Activity (NIH3T3) [%] | viability at 10 µM (MCF7 [4]) [%] | Activity (MCF7 [5]) [%] | Activity (MCF7 [6]) [%] | Activity (MCF7 [7]) [%] | Activity [8] | inhibition at 1 µM (MCF7 [9]) [%] | inhibition at 2.5 µM (MCF7 [10]) [%]
25.5 | 35.5 | 23.3 | Active |  |  | CCn1c(SC/C=C/C(=O)NO)nc2c([nH]c3ccccc32)c1=O | 50.31 |  |  |  |  |  |  | 
24.8 | 59.6 | 28 | Active |  | Active | O=C(CCSc1nc2c([nH]c3ccccc32)c(=O)[nH]1)NO | 21.73 |  |  |  |  |  |  | 
21.8 | 37.2 | 30.3 | Active | 2.38 |  | O=C(/C=C/c1ccc(CSc2nc3c([nH]c4ccccc43)c(=O)[nH]2)cc1)NO | 21.56 |  |  |  |  |  |  | 
20.4 | 49.3 | 21.9 | Active |  | Active | O=C(/C=C/CSc1nc2c([nH]c3ccccc32)c(=O)[nH]1)NO | 41.34 |  |  |  |  |  |  | 
19.9 | 25 | 19.7 | Active |  | Active | O=C(CCCCCCSc1nc2c([nH]c3ccccc32)c(=O)[nH]1)NO | 53.49 |  |  |  |  |  |  | 
19.1 | 22.6 | 31.8 | Active |  | Active | O=C(CCSc1nc2[nH]ncc2c(=O)[nH]1)NO | 48.81 |  |  |  |  |  |  | 
17.4 | > 80 | 18.1 | Active |  |  | CCn1c(SCCCC(=O)NO)nc2c([nH]c3ccccc32)c1=O | 46.33 |  |  |  |  |  |  | 
15.8 | 21.5 | 47.7 | Active |  | Active | O=C(/C=C/c1ccc(CSc2nc3[nH]ncc3c(=O)[nH]2)cc1)NO | 39.04 |  |  |  |  |  |  | 
10.8 | 29.7 | 22.9 |  |  |  | COc1cc([C@@H]2c3cc4c(cc3[C@@H](O[C@@H]3O[C@@H]5CO[C@@H](C)O[C@H]5[C@H](O)[C@H]3O)[C@H]3COC(=O)[C@H]23)OCO4)cc(OC)c1O [ETOPOSIDE] | 21.47 | 92.7 | 4.41 | 2.48 | 0.37 | Active | 64.7 | 47.1
1.58 |  | 1.58 |  |  |  | O=C(CCCCCCC(=O)Nc1ccccc1)NO [VORINOSTAT] | 14.98 | 44.7 | 35.2 | 19.7 | 0.41 |  |  | 
